{"source": "patent US10357486B2", "about": "“Treatment of cognitive impairment with PDE4 inhibitor” (Universiteit Maastricht, priority 2013, dated 2019)", "key": {"[1]": {"tested_on": "healthy adults (18 to 35 years)", "test": "Spatial Memory Task, Stroop task and Continuous Performance task in healthy adults", "format": "in vivo, human", "details": "100 mcg, 300 mcg, 1000 mcg single administration", "description": "In addition to the VLT (immediate recall and delayed recall), the subjects were also tested in the Spatial Memory Task, the Stroop task and the Continuous Performance task (a description of these additional cognitive battery tests can be found in Example 3).\nSpatial memory task (SMT) The spatial memory task assesses spatial memory and is based on the object relocation task by Postma and colleagues (Kessels, Postma et al, Behav Res Methods Instrum Comput. 1999, Vol 31(3) pp 423-428). It consists of one immediate and two delayed conditions. In the immediate condition, a set of 10 pictures will be presented one by one on different locations within a white square on a computer screen. All pictures are everyday, easy-to-name objects, presented in gray scale (±3.5×5 cm). Each picture will be presented for 2000 msec with an interstimulus interval of 1000 msec. […]\nTwenty-four hours after the immediate condition, subjects will return to the lab and perform the task again. […] As with the other tests, the EEG will be recorded during this task and this will later be analysed. No EEG will be recorded during the 24h-measurement. […]\nStroop task The Stroop task is well known for its ability to induce interference, and assesses response inhibition and focused attention. […] However, because of the urge to read the printed words (even if one is asked to ignore them) interference occurs. […]"}, "[2]": {"tested_on": "healthy adults (18 to 35 years)", "test": "EEG Event Related Potentials (P600) during VLT in healthy adults", "format": "in vivo, human", "details": "single oral dose of 100 mcg", "description": "Event Related Potential Analysis An electroencephalogram (EEG) cap was used to place a set of 32 EEG electrodes according to the international 10-20 system on the subjects. Event Related Potentials (ERPs) were extracted by averaging the responses within an epoch of 100 ms before and 1000 ms after stimulus onset covering P300, N400, and P600. Separate averages were made for correct and incorrect responses within a task and for different trial types. EEG measurements were done simultaneously with VLT testing. ERPs were calculated from the words that were called during immediate recall (encoding), and from the words that were recognized and from those that were not during the recognition condition at 45 minutes. The ERP components of P300, N400, and P600 were compared to examine whether the initial stimulus processing during the learning trials differs from word to word. Finally, ERPs to the old and new items during the recognition task were measured.\nTests of Within-Subjects Contrasts were regarded for immediate and delayed free recall scores and for the summed immediate recall score (i.e. immediate 1+immediate 2+immediate 3). The factor Treatment (4 levels; placebo, roflumilast 100 mcg, roflumilast 300 mcg and roflumilast 1000 mcg) was included as a within subjects factor. […] Peak and latency values of three memory related ERP's were analysed; i.e. P300, N400 and P600. […]"}, "[3]": {"test": "Plasma concentration levels of roflumilast and roflumilast-N-oxide in humans", "format": "in vivo, human", "description": "An interim analysis has been performed based on the data of 9 subjects of the Impaired Elderly group and 4 subjects of the Healthy Elderly group. For this purpose, cognitive battery test scores (VLT, SMT, Stroop task and BL-VAS) and concentrations of roflumilast and roflumilast-N-oxide in plasma have been analysed and summarized by dose over each scheduled sampling time using descriptive statistics."}, "[4]": {"tested_on": "xylazine/ketamine induced α2-adrenergic receptor-mediated anesthesia", "test": "xylazine/ketamine induced α2-adrenergic receptor-mediated anesthesia test (emetic potential)", "format": "in vivo", "details": "dose of 3.0 mg/kg", "description": "Since emesis is a typical side-effect of phosphodiesterase 4 inhibitors the emetic potential of roflumilast and rolipram was investigated in parallel using the xylazine/ketamine induced α2-adrenergic receptor-mediated anesthesia test. The results confirmed that the two phosphodiesterase 4 inhibitors have different effects on emesis."}}}
{"smiles": "O=C(Nc1c(Cl)cncc1Cl)c1ccc(OC(F)F)c(OCC2CC2)c1", "note": "[roflumilast, N-(3,5-dichloropyridin-4-yl)-3-cyclopropylmethoxy-4-difluoromethoxybenzamide]", "values": [{"measurement": "difference between placebo and drug treatment in the Spatial Memory Task, the Stroop task and the Continuous Performance task", "setting": "[1]", "value": "No statistically significant differences"}, {"measurement": "amplitude of Event-Related Potential P600 during VLT", "setting": "[2]", "value": "strongest increase of amplitude"}, {"measurement": "amplitude of Event-Related Potential P600 during VLT", "setting": "[2]; listed as Roflumilast", "value": "increased amplitude"}, {"measurement": "exposure (concentrations in plasma)", "setting": "[3]; elderly study, interim analysis, 100, 250, 1000 mcg", "value": "consistent with those previously reported"}, {"measurement": "steady state plasma concentration levels in once a day repeated dosing compared to once a day single dosing", "setting": "[3]; humans, once a day (24 h) regimen", "value": "about two-fold"}, {"measurement": "emetic potential", "setting": "[4]", "value": "tendency towards emetic potential"}]}
